According to article PMC9913425, “Pentacyclic Triterpenoids-Based Ionic Compounds: Synthesis, Study of Structure–Antitumor Activity Relationship, Effects on Mitochondria and Activation of Signaling Pathways of Proliferation, Genome Reparation and Early Apoptosis” (Cancers, 2023):

Legend:
HL60 = assay: In vitro cytotoxicity, IC50 by flow cytometry (Guava ViaCount); type: cell-based, human
How it was run: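 Cells were grown at 37 °C under 5% CO2; the Jurkat, K562 and HL60 lines were kept in RPMI 1640 with 10% FBS, […] and penicillin–streptomycin. Cells were seeded at 5 × 10^4 per well and incubated overnight. IC50 was derived from Guava ViaCount flow cytometry.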

Jurkat cells = assay: Cell cycle analysis (Guava Cell Cycle Reagent); type: cell-based; settings: IC50 concentration, 24 h, flow histogram
Protocol: Our findings are consistent with the literature data that many ICs predominantly affect the G2 and S phases, reducing them.
The incubation time of ionic liquids with cells was 24 h. […] It is listed because the picture prints the label with values. / The fit parameters printed in each histogram (RMS, Mean G1, Mean G2, G2/G1, CV G1, CV G2) were left out as statistics of the cell-cycle model.

**Q.** CC1(C)CC[C@]2(C(=O)OCCCCCC[n+]3ccccc3)CC[C@]3(C)C(=CCC4[C@@]5(C)CC[C@H](O)C(C)(C)C5CC[C@]43C)C2C1 (stereo partly drawn) [12a, 1-(6-{[(3β)-3-Hydroxyolean-12-en-28-oyl]oxy}hexyl)-pyridinium bromide] was tested. Which IC50 (HL60; Homo sapiens, HL-60, HL60 cells) did it give?
**A.** 3 ± 1 nM

**Q.** For CC(=O)[O-].C[n+]1ccn(CCCCCCOC(=O)[C@]23CCC(C)(C)CC2C2=CCC4[C@@]5(C)CC[C@H](O)C(C)(C)C5CC[C@@]4(C)[C@]2(C)CC3)c1 (stereo partly drawn) [13d, 1-(6-{[(3β)-3-Hydroxyolean-12-en-28-oyl]oxy}hexyl)-3-methylimidazolium Acetate], which IC50 (HL60; HL60 cells) is on record?
**A.** 2 ± 1 nM

**Q.** What about the “Freq Sub-G1 (hypodiploid cell population)” value (Jurkat cells) of the same compound?
**A.** 6.91%
